Source: patent US20250032651A1, “[177LU] LUTETIUM-PSMA I&T COMPOSITION AND DOSIMETRY, KIT, METHOD OF MAKING, AND METHOD OF USING THEREOF” (Curium US LLC, priority 2022, published 2025)
“And” between values parts separate entries of the source, which are not always exact repeats. Equal entries are not always repeated.

Experiment: Plasma PK: gamma-counted plasma radioactivity, bi-exponential fit
Format: in vivo, human
Method: Additionally, for PK assessment, whole blood samples were collected at six timepoints (Pre-Infusion, 1 h, 4 h, 24 h, 48 h, and 168 h) and processed to extract plasma. All plasma samples were gamma counted locally for analysis of pharmacokinetics.
PK plasma samples were collected at pre-Infusion, 1 h, 4 h, 24 h, 48 h, and 168 h, and counted for radioactivity. Blood samples were first centrifuged to extract plasma, and then the radioactivity in plasma was counted in a gamma counter.
Whole blood samples were collected as detailed in the protocol Schedule of Events i.e. pre-injection, and then at 1 h, 4 h, 24 h, 48 h, and 168 h post-injection. The samples were first centrifuged to separate plasma, and the radioactivity in the plasma was then measured using a gamma counter. Plasma concentrations were subsequently fitted with a bi-exponential function to derive outcome parameters such as the half-life and clearance rate of the radiopharmaceutical in the plasma.

[1] = Cycle 1, plasma radioactivity, bi-exponential fit
[2] = plasma, Cycle 1, excluding patient 42-030
[3] = plasma, Cycle 1, individual patient values
[4] = plasma, Cycle 1, individual patients

## O=C([O-])CC[C@H](NC(=O)N[C@@H](CCCCNC(=O)CCCCCCC(=O)NCCCC[C@@H](NC(=O)[C@@H](Cc1ccccc1)NC(=O)[C@@H](Cc1ccc(O)c(I)c1)NC(=O)CC[C@H](C(=O)[O-])N1CCN(CC(=O)[O-])CCN(CC(=O)[O-])CCN(CC(=O)[O-])CC1)C(=O)[O-])C(=O)[O-])C(=O)[O-].[177Lu+3].[H+].[H+].[H+].[H+].[H+] [^177Lu-PSMA I&T, (3S,7S,26R,29R,32R,37R)-29-benzyl-32-(4-hydroxy-3-iodobenzyl)-5,13,20,28,31,34-hexaoxo-37-(4,7,10-tris(carboxymethyl)-1,4,7,10-tetraazacyclododecan-1-yl)-4,6,12,21,27,30,33-heptaazaheptatriacontane-1,3,7,26,37-pentacarboxylic acid; lutetium-177 (III)]
Cycle 1
  plasma clearance: 13.06 ± 16.50 L/h
Cycle 1, patient 42-030 (superscan)
  plasma half-life, outlier value: 113.96 h
Cycle 1, patient 80-007, first post-administration sample delayed
  time to peak plasma concentration: 127 min
[1]
  plasma mean distribution half-life: 1.89 ± 0.34 h
  plasma mean elimination half-life: 14.7 ± 10.1 h and 14.70 ± 10.10 h
Cycle 1 plasma PK
  distribution volume: moderate-to-high
plasma, Cycle 1, Mean
  AUC Total: 22.77 fIA/L × min
  Clearance Rate: 13.06 L/h
  Peak Concentration Value: 0.04 fIA/L
  Time of Peak Concentration: 59.19 min
  Vc: 20.29 L
  Vd: 234.64 L
[2]
  AUC Total, Mean: 22.77 fIA/L x min
  AUC Total, max: 37.86 fIA/L x min
  AUC Total, median: 20.84 fIA/L x min
  AUC Total, min: 3.07 fIA/L x min
  Clearance Rate, Mean: 13.06 L/h
  Clearance Rate, max: 89.38 L/h
  Clearance Rate, median: 9.79 L/h
  Clearance Rate, min: 2.89 L/h
  Distribution Half-Life, Mean: 1.89 h
  Distribution Half-Life, max: 2.42 h
  Distribution Half-Life, median: 1.93 h
  Distribution Half-Life, min: 1.14 h
  Elimination Half-Life, Mean: 14.70 h
  Elimination Half-Life, max: 53.30 h
  Elimination Half-Life, median: 10.52 h
  Elimination Half-Life, min: 8.16 h
  Peak Concentration Value, Mean: 0.04 fIA/L
  Peak Concentration Value, max: 0.07 fIA/L
  Peak Concentration Value, median: 0.04 fIA/L
  Peak Concentration Value, min: 0.01 fIA/L
  Time of Peak Concentration: 33.00 min
  Time of Peak Concentration, Mean: 59.19 min
  Time of Peak Concentration, max: 127.00 min
  Time of Peak Concentration, median: 59.00 min
  Vc, Mean: 20.29 L
  Vc, max: 111.78 L
  Vc, median: 16.33 L
  Vc, min: 9.92 L
  distribution volume (column headed "Patient"), Mean: 234.64
  distribution volume (column headed "Patient"), max: 1365.03
  distribution volume (column headed "Patient"), median: 157.12
  distribution volume (column headed "Patient"), min: 54.60
[3]
  AUC Total: 30.05 fIA/L x min and 27.64 fIA/L x min and 20.58 fIA/L x min and 19.49 fIA/L x min and 3.07 fIA/L x min and 25.59 fIA/L x min and 25.58 fIA/L x min and 21.49 fIA/L x min and 26.70 fIA/L x min and 31.83 fIA/L x min and 15.14 fIA/L x min and 28.67 fIA/L x min and 17.09 fIA/L x min and 19.85 fIA/L x min and 34.96 fIA/L x min and 24.13 fIA/L x min and 13.46 fIA/L x min and 17.93 fIA/L x min and 18.79 fIA/L x min and 15.54 fIA/L x min and 19.50 fIA/L x min and 37.86 fIA/L x min and 21.09 fIA/L x min and 34.60 fIA/L x min and 33.81 fIA/L x min and 19.09 fIA/L x min and 15.16 fIA/L x min
  Clearance Rate: 3.89 L/h and 4.21 L/h and 9.97 L/h and 17.94 L/h and 89.38 L/h and 6.26 L/h and 9.62 L/h and 7.63 L/h and 2.82 L/h and 4.73 L/h and 21.26 L/h and 2.89 L/h and 20.65 L/h and 8.08 L/h and 5.73 L/h and 7.92 L/h and 17.68 L/h and 10.55 L/h and 14.19 L/h and 17.10 L/h and 10.68 L/h and 3.95 L/h and 13.78 L/h and 3.66 L/h and 4.78 L/h and 12.34 L/h and 10.74 L/h
  Distribution Half-Life: 1.14 h and 2.14 h and 1.88 h and 1.93 h and 1.69 h and 2.13 h and 2.19 h and 2.31 h and 1.81 h and 1.66 h and 1.78 h and 1.35 h and 1.77 h and 2.12 h and 1.92 h and 2.39 h and 1.30 h and 2.03 h and 2.42 h and 1.46 h and 2.05 h and 2.04 h and 2.22 h and 2.21 h and 1.67 h
  Elimination Half-Life: 9.61 h and 24.34 h and 15.32 h and 9.32 h and 10.58 h and 10.59 h and 12.43 h and 10.02 h and 10.46 h and 113.96 h and 9.19 h and 12.50 h and 53.30 h and 10.35 h and 9.28 h and 8.16 h and 8.92 h and 35.48 h and 8.68 h and 11.79 h and 19.98 h and 11.28 h and 9.41 h and 23.96 h and 16.65 h
  Vc: 21.87 L and 15.83 L and 16.82 L and 13.76 L and 111.78 L and 17.80 L and 11.45 L and 20.41 L and 38.22 L and 10.76 L and 18.90 L and 22.65 L and 15.26 L and 21.10 L and 9.92 L and 17.87 L and 22.51 L and 14.72 L and 16.91 L and 25.15 L and 17.72 L and 12.87 L and 15.24 L and 14.74 L and 11.55 L and 15.53 L and 14.35 L
  distribution volume (column headed "Patient"): 136.62 and 93.01 and 134.00 and 273.75 and 1365.03 and 112.27 and 139.07 and 115.14 and 463.99 and 62.71 and 383.51 and 222.08 and 308.54 and 108.16 and 67.50 and 118.24 and 227.51 and 540.13 and 177.78 and 291.02 and 307.91 and 64.25 and 187.12 and 54.60 and 165.33 and 296.49 and 148.91
plasma, Cycle 1, individual patient values, time of first post-administration sample
  Time of Peak Concentration: 53.00 min and 60.00 min (6×) and 51.00 min (2×) and 58.00 min and 61.00 min (2×) and 50.00 min and 63.00 min and 57.00 min and 55.00 min and 52.00 min (2×) and 68.00 min and 71.00 min and 65.00 min and 33.00 min and 40.00 min and 69.00 min and 56.00 min and 127.00 min and 47.00 min
plasma, Cycle 1, individual patient values, value of first post-administration sample
  Peak Concentration Value: 0.04 fIA/L (10×) and 0.03 fIA/L (4×) and 0.05 fIA/L (7×) and 0.01 fIA/L and 0.06 fIA/L (2×) and 0.02 fIA/L and 0.07 fIA/L (2×)
[4]
  AUC Total: 19.09 fIA/L × min and 15.16 fIA/L × min and 30.05 fIA/L × min and 27.64 fIA/L × min and 20.58 fIA/L × min and 19.49 fIA/L × min and 3.07 fIA/L × min and 25.59 fIA/L × min and 25.58 fIA/L × min and 21.49 fIA/L × min and 26.70 fIA/L × min and 31.83 fIA/L × min and 15.14 fIA/L × min and 28.67 fIA/L × min and 17.09 fIA/L × min and 19.85 fIA/L × min and 34.96 fIA/L × min and 24.13 fIA/L × min and 13.46 fIA/L × min and 17.93 fIA/L × min and 18.79 fIA/L × min and 15.54 fIA/L × min and 19.50 fIA/L × min and 37.86 fIA/L × min and 21.09 fIA/L × min and 34.60 fIA/L × min and 33.81 fIA/L × min
  Clearance Rate: 12.34 L/h and 10.74 L/h and 3.89 L/h and 4.21 L/h and 9.97 L/h and 17.94 L/h and 89.38 L/h and 6.26 L/h and 9.62 L/h and 7.63 L/h and 2.82 L/h and 4.73 L/h and 21.26 L/h and 2.89 L/h and 20.65 L/h and 8.08 L/h and 5.73 L/h and 7.92 L/h and 17.68 L/h and 10.55 L/h and 14.19 L/h and 17.10 L/h and 10.68 L/h and 3.95 L/h and 13.78 L/h and 3.66 L/h and 4.78 L/h
  Peak Concentration Value: 0.05 fIA/L (7×) and 0.04 fIA/L (10×) and 0.03 fIA/L (4×) and 0.01 fIA/L and 0.06 fIA/L (2×) and 0.02 fIA/L and 0.07 fIA/L (2×)
  Time of Peak Concentration: 47.00 min and 53.00 min and 60.00 min (6×) and 51.00 min (2×) and 58.00 min and 61.00 min (2×) and 50.00 min and 63.00 min and 57.00 min and 55.00 min and 52.00 min (2×) and 68.00 min and 71.00 min and 65.00 min and 33.00 min and 40.00 min and 69.00 min
  Vc: 15.53 L and 14.35 L and 21.87 L and 15.83 L and 16.82 L and 13.76 L and 111.78 L and 17.80 L and 11.45 L and 20.41 L and 38.22 L and 10.76 L and 18.90 L and 22.65 L and 15.26 L and 21.10 L and 9.92 L and 17.87 L and 22.51 L and 14.72 L and 16.91 L and 25.15 L and 17.72 L and 12.87 L and 15.24 L and 14.74 L and 11.55 L
  Vd: 296.49 L and 148.91 L and 136.62 L and 93.01 L and 134.00 L and 273.75 L and 1365.03 L and 112.27 L and 139.07 L and 115.14 L and 463.99 L and 62.71 L and 383.51 L and 222.08 L and 308.54 L and 108.16 L and 67.50 L and 118.24 L and 227.51 L and 540.13 L and 177.78 L and 291.02 L and 307.91 L and 64.25 L and 187.12 L and 54.60 L and 165.33 L
plasma, Cycle 1, max
  AUC Total: 37.86 fIA/L × min
  Clearance Rate: 89.38 L/h
  Peak Concentration Value: 0.07 fIA/L
  Time of Peak Concentration: 127.00 min
  Vc: 111.78 L
  Vd: 1365.03 L
plasma, Cycle 1, median
  AUC Total: 20.84 fIA/L × min
  Clearance Rate: 9.79 L/h
  Peak Concentration Value: 0.04 fIA/L
  Vc: 16.33 L
  Vd: 157.12 L
